These results are taken from EP0908457B1, “3-(1,2-benzisothiazol- and isoxazol-5-Y1)-2,4(1H,3H)-pyrimidinedione or thione and 3-(1,2-benzisothiazol- and isoxazol-5-y1)-4(3H)-pyrimidinone or thione herbicidal agents” (BASF AKTIENGESELLSCHAFT, priority 1997, dated 1999).

The structures appear in SMILES notation.

For one series, the system named is Cyperus iria. Nature of the series: Preemergence weed control under flooded paddy conditions, CYPIR (Rice Flatsedge). In kind it is in vivo. Particulars: preemergence, flooded paddy, rated three to four weeks after treatment.
The test system of series [1] is Oryza sativa, (L.) Tebonnet. Nature of the series: Rice tolerance to post-transplant applications under flooded paddy conditions (Example 187), ORYSAT (Rice, Tebonnet). Particulars: rated three to four weeks after treatment.
In series [2] the test system is Cyperus serotinus, Rottb. Nature of the series: Preemergence weed control under flooded paddy conditions, CYPSE (Flatsedge). In kind it is in vivo. Particulars: preemergence, rated three to four weeks after treatment.
For series [3], the system named is Echinochloa oryzoides (Ard.) Fritsch. Nature of the series: Preemergence weed control under flooded paddy conditions, ECHORC (Watergrass (Calif.)). The class given is in vivo. Particulars: preemergence, flooded paddy, rated three to four weeks after treatment.
The subject of the next series is Sagittaria pygmaea, L. Nature of the series: Preemergence weed control under flooded paddy conditions, SAGPY (Arrowhead (Pygmaea)). The class given is in vivo. Particulars: preemergence, flooded paddy, rated three to four weeks after treatment.
For series [4], the system named is Monochoria vaginalis, Presl. In words: Preemergence weed control under flooded paddy conditions, MOOVA (Monochoria). In kind it is in vivo. Particulars: preemergence, flooded paddy, rated three to four weeks after treatment.

As to `CC(C)c1nsc2ccc(-n3c(=O)cc(C(F)(F)F)n(C)c3=O)cc12` [Example 499, 2,4(1H,3H)-Pyrimidinedione, 3-(3-isopropyl-1,2-benzisothiazol-5-yl)-1-methyl-6-(trifluoromethyl)-], the CYPIR herbicidal rating in the series on Cyperus iria (0.0320 kg/ha) was found to be 8.0; in the series with Cyperus iria (0.0620 kg/ha), 9.0; in the series on Cyperus iria (0.1250 kg/ha), 9.0; in the series with Cyperus iria (0.2500 kg/ha) it was 9.0. The “ORYSAT herbicidal rating (rice tolerance)” value in series [1] (0.0320 kg/ha) was 6.5; in series [1] (0.0620 kg/ha) it was 8.0; in series [1] (0.1250 kg/ha) it was 7.5; in series [1] (0.2500 kg/ha), 9.0. For the same compound, the CYPSE herbicidal rating in series [2] (0.0320 kg/ha), in series [2] (0.0620 kg/ha), in series [2] (0.1250 kg/ha) and in series [2] (0.2500 kg/ha) was 9.0 each time. The ECHORC herbicidal rating amounted to 7.5 in series [3] (0.0320 kg/ha), 9.0 in series [3] (0.0620 kg/ha), 9.0 in series [3] (0.1250 kg/ha) and 9.0 in series [3] (0.2500 kg/ha). For the same compound, the SAGPY herbicidal rating in the series on Sagittaria pygmaea, L. (0.0320 kg/ha) is reported as 8.0; in the series with Sagittaria pygmaea, L. (0.0620 kg/ha), 9.0; with Sagittaria pygmaea, L. (0.1250 kg/ha), 9.0; in the series on Sagittaria pygmaea, L. (0.2500 kg/ha), 9.0. The MOOVA herbicidal rating turned out to be 8.0 in series [4] (0.0320 kg/ha), 9.0 in series [4] (0.0620 kg/ha), 9.0 in series [4] (0.1250 kg/ha) and 9.0 in series [4] (0.2500 kg/ha).

On to `CC(C)N(C(C)C)S(=O)(=O)NC(=O)c1nsc2ccc(-n3c(=O)cc(C(F)(F)F)n(C)c3=O)cc12` [Example 500, 1,2-Benzisothiazole-3-carboxamide, 5-[3,6-dihydro-3-methyl-2,6-dioxo-4-(trifluoromethyl)-1(2H)-pyrimidinyl)-N-(diisopropylsulfamoyl)-], for which the CYPIR herbicidal rating with Cyperus iria (0.0320 kg/ha) worked out at 6.0; in the series with Cyperus iria (0.0620 kg/ha), 6.0; in the series on Cyperus iria (0.1250 kg/ha) it was 6.0; in the series on Cyperus iria (0.2500 kg/ha), 9.0. The “ORYSAT herbicidal rating (rice tolerance)” value in series [1] (0.0320 kg/ha), in series [1] (0.0620 kg/ha), in series [1] (0.1250 kg/ha) and in series [1] (0.2500 kg/ha) was 2.0 throughout. The CYPSE herbicidal rating in series [2] (0.0320 kg/ha), in series [2] (0.0620 kg/ha), in series [2] (0.1250 kg/ha) and in series [2] (0.2500 kg/ha) was 0.0 each time. Further, the ECHORC herbicidal rating in series [3] (0.0320 kg/ha) is 4.0; in series [3] (0.0620 kg/ha), 6.0; in series [3] (0.1250 kg/ha) it was 7.0; in series [3] (0.2500 kg/ha), 9.0. In addition, the SAGPY herbicidal rating with Sagittaria pygmaea, L. (0.0320 kg/ha) is 5.0; in the series on Sagittaria pygmaea, L. (0.0620 kg/ha) it was 7.0; with Sagittaria pygmaea, L. (0.1250 kg/ha), 7.0; with Sagittaria pygmaea, L. (0.2500 kg/ha), 9.0. Also, the MOOVA herbicidal rating was 7.0 in series [4] (0.0320 kg/ha), 9.0 in series [4] (0.0620 kg/ha), 9.0 in series [4] (0.1250 kg/ha) and 9.0 in series [4] (0.2500 kg/ha).
